Legend:
Assay in all cases: relative viability (nuclei count vs DMSO), 5 days (fraction); higher = more cells survive
Ruxolitinib + Decitabine = compound: N#CC[C@H](C1CCCC1)n1cc(-c2ncnc3[nH]ccc23)cn1 [Ruxolitinib] + Nc1ncn([C@H]2C[C@H](O)[C@@H](CO)O2)c(=O)n1 [Decitabine] (partner 2 µM)
Procedure, shortened: (§1)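 After 5 days of treatment, lung cancer cells in 1536-well plates were fixed and stained in a single step (final 0.05% Triton X-100, 1% formaldehyde, 1 ug/ml Hoechst) and their nuclei counted on 4× images. Treatment had been applied by pin tool the day after seeding as one drug alone or as a fixed anchor-drug dose with five library-drug doses (not always all listed) in √10 steps. Relative viability is the nuclei count of treated wells divided by that of vehicle wells, and values are medians of duplicate plates.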

Vismodegib + Pemetrexed = compound: CS(=O)(=O)c1ccc(C(=O)Nc2ccc(Cl)c(-c3ccccn3)c2)c(Cl)c1 [Vismodegib] + Nc1nc2[nH]cc(CCc3ccc(C(=O)N[C@@H](CCC(=O)O)C(=O)O)cc3)c2c(=O)[nH]1 [Pemetrexed] (partner 0.2 µM)
Procedure, shortened: as §1

VE-821 + Foretinib = compound: CS(=O)(=O)c1ccc(-c2cnc(N)c(C(=O)Nc3ccccc3)n2)cc1 [VE-821] + COc1cc2c(Oc3ccc(NC(=O)C4(C(=O)Nc5ccc(F)cc5)CC4)cc3F)ccnc2cc1OCCCN1CCOCC1 [Foretinib] (partner 0.25 µM)
Procedure, shortened: as §1

Ruxolitinib + Tozasertib = compound: N#CC[C@H](C1CCCC1)n1cc(-c2ncnc3[nH]ccc23)cn1 [Ruxolitinib] + Cc1cc(Nc2cc(N3CCN(C)CC3)nc(Sc3ccc(NC(=O)C4CC4)cc3)n2)n[nH]1 [Tozasertib] (partner 0.1 µM)
Procedure, shortened: as §1

Cell Line	relative viability (Ruxolitinib + Decitabine; first compound 0.08 µM)	relative viability (Ruxolitinib + Decitabine; first compound 0.253 µM)	relative viability (Ruxolitinib + Decitabine; first compound 0.8 µM)	relative viability (Ruxolitinib + Decitabine; first compound 2.53 µM)	relative viability (Ruxolitinib + Decitabine; first compound 8 µM)	relative viability (Vismodegib + Pemetrexed; first compound 0.08 µM)	relative viability (Vismodegib + Pemetrexed; first compound 0.253 µM)	relative viability (Vismodegib + Pemetrexed; first compound 0.8 µM)	relative viability (Vismodegib + Pemetrexed; first compound 2.53 µM)	relative viability (Vismodegib + Pemetrexed; first compound 8 µM)	relative viability (VE-821 + Foretinib; first compound 0.08 µM)	relative viability (VE-821 + Foretinib; first compound 0.253 µM)	relative viability (VE-821 + Foretinib; first compound 0.8 µM)	relative viability (VE-821 + Foretinib; first compound 2.53 µM)	relative viability (VE-821 + Foretinib; first compound 8 µM)	relative viability (Ruxolitinib + Tozasertib; first compound 0.08 µM)	relative viability (Ruxolitinib + Tozasertib; first compound 0.253 µM)	relative viability (Ruxolitinib + Tozasertib; first compound 0.8 µM)	relative viability (Ruxolitinib + Tozasertib; first compound 2.53 µM)	relative viability (Ruxolitinib + Tozasertib; first compound 8 µM)
NCI-H596	0.903	0.96	1.14	1.04	1.08	0.475	0.489	0.394	0.525	0.502	0.867	0.617	0.928	0.905	0.607	0.827	0.897	0.962	0.955	0.799
NCI-H1734	0.512	0.485	0.613	0.423	0.494	0.433	0.399	0.433	0.429	0.414	0.972	0.854	0.805	1.02	0.722	0.332	0.25	0.281	0.209	0.223
NCI-H1651	0.514	0.604	0.624	0.438	0.655	0.518	0.65	0.594	0.473	0.48	0.72	0.838	0.662	0.885	1.02	0.714	0.637	0.64	0.573	0.682
NCI-H2170	0.499	0.436	0.496	0.425	0.427	0.254	0.272	0.304	0.253	0.284	1.01	0.972	0.952	0.958	0.798	0.804	0.689	0.768	0.77	0.6
NCI-H1975	0.329	0.384	0.36	0.304	0.222	0.309	0.264	0.293	0.263	0.287	0.977	0.89	–	0.82	0.709	0.724	0.78	0.682	0.767	0.389
NCI-H1437	0.716	0.623	0.631	0.634	0.603	0.297	0.308	0.339	0.288	0.316	1.3	1.25	1.16	1.34	1.24	0.457	0.39	0.406	0.413	0.422
HOP-62	0.197	0.258	0.227	0.208	0.19	0.305	0.295	0.263	0.377	0.272	1.14	1.04	1.07	1.22	1.09	0.345	0.394	0.415	0.402	0.348
NCI-H2405	0.765	0.786	0.792	0.682	0.424	1.13	1.03	1.03	1.01	1.01	1.09	1.06	0.993	1.09	1.12	–	0.787	0.833	0.758	0.604
SK-MES-1	0.45	0.362	0.429	0.319	0.358	0.853	0.928	0.871	0.972	0.825	0.99	0.989	0.655	1.02	0.89	1.01	0.873	0.906	0.768	0.735
LC-2-ad	0.776	0.936	0.784	0.694	0.604	0.269	0.271	0.278	0.276	0.26	1.04	1.05	1.03	1.17	1.03	–	0.435	0.548	0.482	0.515
NCI-H1944	0.445	0.394	0.467	0.393	0.409	0.625	0.696	0.611	–	0.629	0.917	0.84	0.694	0.862	0.487	0.248	0.263	0.24	0.292	0.266
NCI-H322M	0.718	0.702	0.744	0.693	0.889	0.607	0.618	0.548	0.609	0.646	1.07	0.879	0.89	0.858	0.393	0.451	0.503	0.457	0.458	0.482
HCC-366	0.361	0.321	0.318	0.24	0.275	0.164	0.17	0.186	0.166	0.158	0.942	0.922	0.815	0.271	0.153	0.117	0.113	0.192	0.0897	0.101
HCC-78	0.598	0.607	0.677	0.527	0.661	0.907	0.951	0.961	0.785	0.891	0.577	0.524	0.539	0.628	0.569	0.512	0.45	0.414	0.55	0.5
EKVX	–	0.3	0.35	0.337	0.414	–	0.334	0.359	0.402	0.387	0.801	0.673	0.574	0.874	0.582	0.392	0.439	0.463	0.282	0.443
HARA	0.63	0.472	0.631	0.565	0.489	0.243	–	0.303	0.263	0.242	1.06	0.888	0.798	0.812	0.574	0.113	0.111	0.112	0.107	0.119
LXF-289	0.369	0.426	0.353	0.363	0.371	0.897	0.94	0.933	0.978	0.759	1.02	0.991	0.98	1.04	1.07	0.215	0.165	0.233	0.134	0.187

Reference: the supplement of paper PMC10307832
